Values of other authors, collected in patent publication US20190177284A1, “TETRAZOLYL-CONTAINING CYCLOPROPANECARBOXAMIDES” (Bayer Pharma Aktiengesellschaft, priority 2017, published 2019).

How the values were obtained:
[1] = cited from earlier work
[2] = cited from earlier work; remark: listed apart in the source
[3] = cited from earlier work; remark: listed apart in the source
[4] = due to metabolic liability; cited from earlier work

| SMILES | pharmacokinetic profile in rat [1] | human metabolic stability [2] | aqueous solubility [3] | pharmacokinetic profile [4] |
| --- | --- | --- | --- | --- |
| C[C@@H]1CC[C@H](C)N1C(=O)c1ccc([C@@H](C)NC(=O)C2(NC(=O)c3cc(F)cc(C(F)(F)F)c3)CC2)c(F)c1 | reasonable | poor | reasonable |  |
| C[C@@H](NC(=O)C1(NC(=O)C(F)(F)F)CC1)c1ccc(-c2cccc(Cl)c2C(=O)O)cc1F [MK-0686] |  |  |  | suboptimal |
